Assays:
tau [1] = assay: Tau phosphorylation in Ab42-treated organotypic frontocortical slice cultures; type: cell-based; conditions: Ab42-treated rat organotypic frontocortical slice cultures
Procedure: Rat brain slice organotypic culture methods were modified from those published previously. [Adamchik et al., Brain Res Brain Res Protoc 5:153-158 (2000).] FCX slices ([…]) were transferred to sterile, porous Millicell-CM inserts (0.4 mm). Each culture insert unit contained two brain slices and was placed into individual wells of a 12-well culture tray in 2 ml medium: 50% MEM with Earl's salts, 2 mM L-glutamine, 25% Earl's balanced salt solution, 6.5 g/l D-glucose, 20% fetal bovine serum (FBS), 5% horse serum, 25 mM HEPES buffer, pH 7.2, and […] streptomycin and […] penicillin. Cultures were kept in an incubator for 2 days at 36° C. in 5% CO2 to minimize the impact of injury from slice preparation.
On the day of experiment, medium was removed, the brain slices rinsed and incubated in 0.1% FBS-containing medium for 4 hours at 36° C. in 5% CO2. Brain slices were then cultured with 100 nM Ab42 and/or 0.1, 1 nM compound C0105 or compound C0114 in fresh 0.1% FBS-containing medium for 16 hours. […]
(§1) The levels of phosphorylated tau (pSer202tau, pThr231tau and pThr181tau) as well as total tau precipitated (loading controls) are assessed by Western blotting using specific antibodies directed against each of the phosphor-epitopes and the anti-tau, respectively.

FLNA = molecular target: T1, FLNA (Mus musculus, UniProt Q8BTM8); conditions: 20-22 mg/kg in vivo; Ab42-infused, 3xTg AD and aged wild-type mice (untreated 5.3); Wang et al. 2017; cited from earlier work
T1 construct: pI of FLNA from the brains of naïve mice; from tissue; host or cells: mouse brain (in vivo treated animals)

tau [2] = assay: Tau phosphorylation in human postmortem frontal cortex slices; type: cell-based; conditions: 1 or 10 nM compound
Procedure: As will be seen from examination of FIG. 3 and FIG. 4, the ratio of TLR2 to FLNA increased with administration of each of LTA-SA, PGN-SA and Ab42 at a statistically significant amount relative to the control (p<0.01). Those changes in expression of TLR2 relative to FLNA were each inhibited by the presence of the 1 or 10 nM Compound C0105 at a statistically significant amount relative to the control (p<0.01) and relative to the ligand used. See, FIG. 3B.
A slight inhibition (about 25% or less) of that enhanced tau phosphorylation was provided by contacting the cells with 1 or 10 nM Compound C0105. […] See, FIGS. 4A and 4B.
as §1

T1 sequence (Q8BTM8 whole entry, the tested form may be a part): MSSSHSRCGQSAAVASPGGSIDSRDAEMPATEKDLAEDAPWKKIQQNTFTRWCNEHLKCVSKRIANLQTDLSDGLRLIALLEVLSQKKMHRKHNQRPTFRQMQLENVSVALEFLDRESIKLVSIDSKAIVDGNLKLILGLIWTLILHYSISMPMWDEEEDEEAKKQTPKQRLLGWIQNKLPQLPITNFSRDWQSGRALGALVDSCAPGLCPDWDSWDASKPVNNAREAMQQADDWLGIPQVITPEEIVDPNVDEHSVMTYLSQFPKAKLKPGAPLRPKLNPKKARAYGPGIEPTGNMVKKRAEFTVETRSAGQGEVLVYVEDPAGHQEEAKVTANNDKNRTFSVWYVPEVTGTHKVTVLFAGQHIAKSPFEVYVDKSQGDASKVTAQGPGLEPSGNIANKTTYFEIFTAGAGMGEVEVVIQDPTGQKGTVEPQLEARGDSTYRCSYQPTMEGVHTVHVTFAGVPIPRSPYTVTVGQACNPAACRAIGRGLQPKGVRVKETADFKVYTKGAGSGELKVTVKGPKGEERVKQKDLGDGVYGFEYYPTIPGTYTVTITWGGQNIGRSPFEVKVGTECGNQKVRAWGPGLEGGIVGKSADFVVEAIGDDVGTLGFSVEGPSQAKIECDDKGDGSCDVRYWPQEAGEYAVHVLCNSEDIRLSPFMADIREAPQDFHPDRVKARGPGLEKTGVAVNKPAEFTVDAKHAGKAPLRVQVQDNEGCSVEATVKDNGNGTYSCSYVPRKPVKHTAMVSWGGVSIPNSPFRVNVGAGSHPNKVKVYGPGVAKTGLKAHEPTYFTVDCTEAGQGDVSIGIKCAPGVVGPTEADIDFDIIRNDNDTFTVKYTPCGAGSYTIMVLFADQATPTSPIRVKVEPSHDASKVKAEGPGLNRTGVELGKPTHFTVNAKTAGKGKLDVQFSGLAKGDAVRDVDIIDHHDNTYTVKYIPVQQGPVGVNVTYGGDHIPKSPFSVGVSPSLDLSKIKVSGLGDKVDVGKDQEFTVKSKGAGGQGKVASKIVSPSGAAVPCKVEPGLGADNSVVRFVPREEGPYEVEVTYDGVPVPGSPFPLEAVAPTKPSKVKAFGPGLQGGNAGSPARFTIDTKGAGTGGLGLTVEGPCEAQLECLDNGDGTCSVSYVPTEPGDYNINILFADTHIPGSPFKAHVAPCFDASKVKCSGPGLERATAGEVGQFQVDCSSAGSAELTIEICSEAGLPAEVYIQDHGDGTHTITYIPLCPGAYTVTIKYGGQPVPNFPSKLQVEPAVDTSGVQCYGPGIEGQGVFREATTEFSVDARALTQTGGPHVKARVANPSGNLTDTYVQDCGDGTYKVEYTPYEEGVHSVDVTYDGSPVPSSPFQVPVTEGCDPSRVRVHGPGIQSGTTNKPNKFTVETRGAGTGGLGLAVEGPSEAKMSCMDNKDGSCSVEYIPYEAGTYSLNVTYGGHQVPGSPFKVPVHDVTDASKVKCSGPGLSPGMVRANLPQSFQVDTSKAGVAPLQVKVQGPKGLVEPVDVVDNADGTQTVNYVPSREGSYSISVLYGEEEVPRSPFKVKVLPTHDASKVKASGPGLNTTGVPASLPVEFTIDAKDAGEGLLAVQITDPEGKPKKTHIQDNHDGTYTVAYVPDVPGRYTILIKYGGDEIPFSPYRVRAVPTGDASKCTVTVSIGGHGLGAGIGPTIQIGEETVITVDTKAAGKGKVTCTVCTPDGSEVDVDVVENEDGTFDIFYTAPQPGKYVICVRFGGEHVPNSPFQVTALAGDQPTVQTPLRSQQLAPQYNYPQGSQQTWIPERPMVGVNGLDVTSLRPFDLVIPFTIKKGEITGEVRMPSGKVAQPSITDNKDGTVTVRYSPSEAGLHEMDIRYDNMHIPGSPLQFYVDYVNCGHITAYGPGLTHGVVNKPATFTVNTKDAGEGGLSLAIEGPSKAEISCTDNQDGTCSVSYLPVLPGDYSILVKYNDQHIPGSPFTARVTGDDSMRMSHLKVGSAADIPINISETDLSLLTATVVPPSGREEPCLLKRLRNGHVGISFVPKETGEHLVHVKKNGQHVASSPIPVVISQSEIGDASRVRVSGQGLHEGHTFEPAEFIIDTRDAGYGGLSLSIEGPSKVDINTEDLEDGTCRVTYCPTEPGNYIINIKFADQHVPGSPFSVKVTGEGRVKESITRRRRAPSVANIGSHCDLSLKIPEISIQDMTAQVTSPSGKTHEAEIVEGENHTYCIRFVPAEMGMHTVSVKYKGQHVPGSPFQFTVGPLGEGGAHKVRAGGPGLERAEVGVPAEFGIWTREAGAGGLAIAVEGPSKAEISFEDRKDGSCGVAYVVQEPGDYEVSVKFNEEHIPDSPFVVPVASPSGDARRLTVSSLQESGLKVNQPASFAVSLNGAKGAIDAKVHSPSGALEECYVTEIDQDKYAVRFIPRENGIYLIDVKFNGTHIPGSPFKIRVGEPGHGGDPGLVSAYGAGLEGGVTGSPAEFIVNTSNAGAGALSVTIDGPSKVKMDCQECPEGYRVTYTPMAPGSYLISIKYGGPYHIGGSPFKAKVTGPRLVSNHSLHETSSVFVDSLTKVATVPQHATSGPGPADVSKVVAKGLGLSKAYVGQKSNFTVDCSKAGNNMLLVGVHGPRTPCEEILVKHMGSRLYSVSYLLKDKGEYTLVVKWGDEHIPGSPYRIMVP

For `CN1CCC2(CC1)NCC(=O)N2Cc1ccccc1` [Compound C0105M], the “Phosphorylation of tau at all three phosphorylation sites” value (tau [1]) is given as “dramatically reduces phosphorylation of tau”, the “pI of FLNA from brain after treatment” value (FLNA) is given as 5.9 and the “Inhibition of LTA-SA- or PGN-SA-enhanced tau phosphorylation” value (tau [2]) is given as no more than 25%. The “Ab42-induced tau phosphorylation (in words)” value (tau [2]; 0.1 micromolar Ab42) was “statistically significant reduction”.

Source: patent US20220233512A1, “INHIBITING AN IMMUNE RESPONSE MEDIATED BY ONE OR MORE OF TLR2, RAGE, CCR5, CXCR4 AND CD4” (priority 2020, published 2022)
